# Experiment: in vitro
# Conditions: human, hela cells, % viability
row,Compound,"viability at 28.5 h, 10 µM [%]"
1,CN(C)CCn1c2c(c3ccccc31)CCCn1cnnc1-2 [CBK267712C],97.2
2,O=C(Cc1ccc(Cl)c(Cl)c1)NC(c1ccccc1)c1ccccn1 (centres unmarked) [CBK144110],92.8
3,O=C(Cn1ccc([N+](=O)[O-])n1)NCc1ccco1 [CBK268999],89.6
4,O=C(O)C1CCCN1C(=O)NCc1c(Cl)cccc1Cl (centres unmarked) [CBK161383],88.1
5,O=C1CC2(CCN(C(=O)C3CCCC3)CC2)Oc2ccccc21 [CBK283485],94.9
6,COc1cccc2ncn(CCCn3cccn3)c(=O)c12 [CBK307094],89.7
7,Cc1ccc2c(c1)C(=O)CC1(CCC3C(C(=O)NC4CCCC4)C31)O2 (centres unmarked) [CBK282716],83.4
8,CN1CC[C@H](c2ccccc2)[C@@H]2[C@H]1CCCCN2C(=O)c1ccc(=O)oc1 [CBK285527],93.2
9,O=C(NC(=S)Nc1cccc(-c2nc3ncccc3o2)c1)c1cc([N+](=O)[O-])ccc1N1CCOCC1 [CBK268756],92.7
10,O=C(CC1CCN(Cc2ccccn2)CC1)Nc1ccc(OC2CCCC2)cc1 [CBK285960],104
11,Cn1c(CCNC(=O)c2cccs2)nc2cc([N+](=O)[O-])ccc21 [CBK268511],83
12,COc1ccc(Oc2cncc(OC3CCN(CCCn4c(=O)[nH]c5ccccc54)C3)n2)cc1OC (centres unmarked) [CBK084406],97.6
13,CC(C)c1ccc2oc(-c3ccc(NC(=S)NC(=O)c4cncc(Br)c4)cc3)nc2c1 [CBK264913],106
14,O=C(O)Cc1ccc(NC(=O)CN2C(=O)c3ccccc3C2=O)cc1 [CBK268562],104
15,CC1CCc2onc(C(=O)Nc3ccncc3)c2C1 (centres unmarked) [CBK288080],110
16,CC(C)N1CC[C@@H]2[C@H]1C(=O)NC[C@H](CCC(=O)NCc1ccc(F)cc1)N2C [CBK289024],91.4
17,NC(=O)C1CCN(C2CC(=O)NC2=O)CC1 (centres unmarked) [CBK263290],90.3
18,CN1CCN(c2nc(-c3cc4ccccc4s3)cn3ccnc23)CC1 [CBK066388],106
19,CCn1nc(C)c(-c2cncn2CCn2nc(C)c(C)c2C)c1C [CBK281782],98.8
20,Cc1cccc(=O)n1CCCNc1cc(C2CCOC2)nc(N)n1 (centres unmarked) [CBK307030],81.9
21,Fc1ccc(-c2noc([C@@H]3CCCN3Cc3ncc[nH]3)n2)nc1 [CBK288897],102
22,CC1=CCC2C(=O)N(C(CC(C)C)C(=O)O)C(=O)C2C1 (centres unmarked) [CBK287172],94.6

row,Compound,"viability at 28.5 h, 10 µM [%]"
1,CCN1CCC(CC(=O)N2CCc3[nH]c4ccccc4c3C2)CC1 [CBK281846],86.5
2,C(=C\CSc1nc2ccccc2[nH]1)/CSc1nc2ccccc2[nH]1 [CBK263090],107
3,O=C(NCCN1CCCCC1)C1CC(=O)N(Cc2ccccc2)C1 (centres unmarked) [CBK305150],96.5
4,COc1ccccc1CNCCNC(=O)OC(C)(C)C [CBK056694],105
5,CC(C)N(CCOc1nccnc1-c1cnn(C)c1)C(C)C [CBK107084],103
6,C(#Cc1cccc(-c2nc3ccccc3nc2-c2cccc(C#Cc3ccc(Sc4ccccc4)cc3)c2)c1)c1ccc(Sc2ccccc2)cc1 [CBK261158],93.2
7,CC(=O)Nc1cccc(Oc2nccnc2-c2ccc(F)cc2)c1 [CBK106900],37.1
8,CN(C)C(=O)c1cccc(-c2cnc3[nH]c(=O)n(Cc4ccc(Cl)cc4)c3n2)c1 [CBK064553],97.5
9,CCOC(=O)c1nc(N)c2c(CC#N)nn(C)c2n1 [CBK023254],109
10,O=C(c1ccccc1F)N1CCC(O)(c2cccnc2F)CC1 [CBK284356],97.1
11,Cn1c(=O)c2c(nc(NCc3ccccc3)n2C)n(C)c1=O [CBK139872],95.9
12,CN(Cc1ccccc1)Cc1ccccc1O [CBK261879],92.4
13,OCCN(CC#CC(O)(c1ccccc1)c1cccc(F)c1)CCO (centres unmarked) [CBK301210C],91.2
14,O=C(O)CCCn1c(-c2cccc([N+](=O)[O-])c2)nc(=S)c2c1CCCC2 [CBK265657],101
15,Cc1c(CN2CCC(CO)C2)cnn1Cc1ccccc1 (centres unmarked) [CBK282113],99.5
16,CC1(C)CC(NC(=O)c2cc([N+](=O)[O-])ccc2Cl)CC(C)(C)N1 [CBK263948],93.7
17,CN(C)c1ccc(-c2cnc3[nH]c(=O)n(C4CCCC4)c3n2)cc1 [CBK064964],98
18,CCOC(=O)c1c(NC(C)=O)nc2n1CCS2 [CBK023488],98.5
19,Cc1ccc(CN2CCNCC2CCO)o1 (centres unmarked) [CBK269844],92.3
20,CCOC(=O)C1(N)CCCC1 [CBK073836C],94.4
21,Cc1ccc(-c2n[nH]c(=S)n2CCC(=O)N(C)Cc2ccc(N3CCCCC3)cc2)cc1 [CBK297904],106
22,COc1ccccc1-c1c(O)n[nH]c1C(C)C [CBK075133],111

row,Compound,"viability at 28.5 h, 10 µM [%]"
1,CC(C)(C)C(=O)N1CCC(c2[nH]ncc2-c2ccncc2)CC1 [CBK284211],88.2
2,C[S+]([O-])c1sc(Cl)c2c1C(=O)CCC2 (centres unmarked) [CBK005657],104
3,O=C(Nc1cccnc1)N1CCCC(CO)C1 (centres unmarked) [CBK156068],92.4
4,CC(Cn1cncc1-c1cnn(C)c1)Oc1ccccc1Cl (centres unmarked) [CBK281737],105
5,O=C1N2CCSC2=NC1(Nc1nccs1)C(F)(F)F (centres unmarked) [CBK267484],84.1
6,COc1ccc(-c2cncc(N3CCN(c4cccc5[nH]ccc45)CC3)n2)cc1 [CBK066087],97.2
7,C=C(C)Cn1c(SCC(C)C)nnc1-c1ccccc1C(=O)NC(C)C [CBK200096],87.8
8,CC(=O)Nc1ccc(Sc2cnccn2)cc1 [CBK085838],89.7
9,Cn1c(SCCC(=O)O)nnc1-c1cccnc1 [CBK269077],108
10,COc1ccc(-c2cnc(NS(C)(=O)=O)c(C(=O)Nc3cc(C)nn3C)c2)cc1 [CBK076528],88.2
11,CCOC(=O)c1ccc(N2C(=O)CC(N3CCN(c4cccc(OC)c4)CC3)C2=O)cc1 (centres unmarked) [CBK265396],101
12,Nc1ncc(-c2ccc(F)c(Cl)c2)nc1NCCCO [CBK063555],101
13,c1ccc(Nc2nc(-c3cccs3)cn3ccnc23)cc1 [CBK066513],83.7
14,CS(=O)(=O)NCC1CCCCN1Cc1ccc(-n2cccn2)cc1 (centres unmarked) [CBK305587],91.9
15,O=S(=O)(CCSc1ccc(Cl)cc1)Oc1ccccc1 [CBK261021],102
16,O=C(O)c1ccc(CNC2CC(=O)N(c3ccc(F)cc3)C2=O)cc1 (centres unmarked) [CBK286727],95.3
17,COCCNc1nc(-c2ccc(N3CCOCC3)cc2)ccc1C(=O)N1CCN(C)CC1 [CBK105943],111
18,CCN(CC)CCn1c(NC(=O)CCC2CCNC2)nc2ccccc21 (centres unmarked) [CBK304693],92.3
19,COc1ccc2[nH]c3c(c2c1)CCN(CCc1ccc(F)cc1)C3 [CBK082819T],92.3
20,O=S(=O)(Cc1ccc(Br)cc1F)c1ccccn1 [CBK019368],90.4
21,O=C(Cc1cccc2ccccc12)NC(=S)Nc1cccc(C(=O)O)c1 [CBK267471],90.7

# Reference: paper PMC12040169 (PLOS Biology, 2025)
